Measurements from patent US5621000A, “Nitric esters having a pharmacological activity and process for their preparation” (priority 1992, dated 1997).
Like-named read-outs stand apart in the source and are kept apart here.

What was measured:
[1] = test system: human platelets; test: Anti-platelet aggregation activity on platelets stimulated by arachidonic acid; type: cell-based
Procedure: (§1) The anti-inflammatory and anti-platelet aggregation activity as well as the gastrointestinal ulcerogenicity, for instance of nitric esters having the following formulae, were tested by means of biological studies: [drawing 16]
The anti-inflammatory activity of said nitric esters was determined in Wistar rats utilizing the method of the carrageenan paw edema, as reported in C. A. WINTER, E. RISLEY, G. W. NUSS, Proc. Soc.
(§2) The anti-inflammatory and anti-platelet aggregation activity as well as the gastrointestinal ulcerability activity of said derivatives are given on Table 1, and are expressed, for each nitric ester indicated, as the power ratio relative to the corresponding acids non functionalized according to the general formula (I), according to this invention. Each value represents the mean of the values obtained by the treatment of 10 animals.

[2] = test system: carrageenan paw edema; test: Carrageenan paw edema, anti-inflammatory activity; type: in vivo, Wistar rats; details: for ANTI-INFLAM. ACTIVITY (power ratio relative to the corresponding acid): carrageenan paw edema, Wistar rats, mean of 10 animals; for efficacy in rat carrageenan paw edema vs reference drugs: p.o., compared with Ketoprofen and Flurbiprofen
Procedure: as §1
The anti-inflammatory activity of said nitric esters was determined in Wistar rats utilizing the method of the carrageenan paw edema, as reported in C. A. WINTER, E. RISLEY, G. W. NUSS, Proc. Soc. Exp. Biol. Med. 111,544 (1962), while the anti-platelet aggregation activity of said derivatives was determined on human platelets stimulated by arachidonic acid, according to the method described by V. BERTELE et al., Science 220,517 (1983).
as §2

[3] = test system: gastrointestinal ulcerogenicity; test: Gastrointestinal ulcerability after oral administration; type: in vivo, rat
Procedure: as §1
The gastrointestinal ulcerability was evaluated by oral administration in the rat.
as §2

[4] = test system: adjuvant arthritis; test: Rat adjuvant arthritis; type: in vivo; details: 3 mg/kg p.o., 19 consecutive days (days 3 through 21 after adjuvant injection), compared to controls
[5] = test system: prostaglandin E2 in exudate; test: Prostaglandin synthesis in the inflammatory exudate (carrageenan sponge); type: in vivo; details: for inhibition at 20 mg/kg: po, read-out: inhibition of the formation of prostaglandin E2 in exudate
Source text: PROSTAGLANDIN SYNTHESIS IN THE INFLAMMATORY EXUDATE.
Subcutaneous implantation of carrageenan sponge elicits the infiltration of inflammatory cells, as reported in Nature 284, 271 (1980). […]

[6] = test system: plasma nitrate/nitrite levels; test: NO release: plasma nitrate/nitrite levels; type: in vivo; details: for increase of plasma nitrate/nitrite levels: one hour after the administration; for effect on plasma nitrate/nitrite levels: reference compounds
[7] = test system: phenylquinone writhing; test: Mouse phenylquinone writhing; type: in vivo; details: 3 to 10 mg/kg p.o.
[8] = test system: prostaglandin E2 synthesis (gastric); test: Gastric prostaglandin synthesis; type: in vivo; details: for inhibition of gastric prostaglandin E2 synthesis: at the highest dose (5-20 mg/kg p.o.)
[9] = test system: central nervous, autonomic, cardiovascular, respiratory and gastrointestinal systems; test: General (secondary) pharmacology; type: in vivo; details: in comparison with Ketoprofen or Flurbiprofen
[10] = test system: non rodents; test: in vivo; type: in vivo; details: for tolerability in non rodents: increasing oral doses up to 30 mg/kg, preliminary; for mortality in non rodents: 10 mg/kg, reference compounds
[11] = in vivo; type: in vivo; details: in vivo, read-out: maximum tolerated dose: highest oral dose without apparent symptoms
[12] = Rat gastric mucosa injury; details: po
[13] = test system: leukocyte adherence to mesenteric post-capillary venules; test: Gastric leukocyte adherence/vessel diameter (intravital microscopy); type: in vivo; details: for blood pressure: one hour period after administration
Source text: GASTRIC LEUKOCYTE ADHERENCE/VESSEL DIAMETER. […] J. Physiol.

[14] = test system: gastric mucosa; test: Rat gastric mucosa injury
[15] = test system: collagen-induced platelet aggregation; test: In vivo platelet aggregation, collagen-induced; details: 20 mg/kg p.o. in the rat; for inhibition at 20 mg/kg: Platelet, po, versus controls
Source text: IN VIVO PLATELET AGGREGATION.

[16] = test system: mouse; test: Preliminary acute toxicity in the mouse by two administration routes; type: in vivo; details: oral or intraperitoneal doses of 300 mg/kg
[17] = test system: gastric mucosa; details: rat, in vivo, po
[18] = oral administration in the rat, ratio to corresponding acid, mean of 10 animals
[19] = prior to and during one hour after administration, intravital microscopy

## CCC(C(=O)OCCCCO[N+](=O)[O-])c1ccc(N2Cc3ccccc3C2=O)cc1 (stereo not shown) [(XXV)]
[1]
  ANTI-AGGREG. ACTIVITY (power ratio relative to the corresponding acid): 1,25
[2]
  ANTI-INFLAM. ACTIVITY (power ratio relative to the corresponding acid): 1,05
[3]; [18]
  GASTRO-INTESTINAL ULCERABILITY (power ratio relative to the corresponding acid): 0,30

## CC(C(=O)OCCCCO[N+](=O)[O-])c1ccc(-c2ccccc2)c(F)c1 (stereo not drawn) [(XII), nitric ester of 2-fluoro-alpha-methyl-4-diphenyl acetate of 4-hydroxybutyl]
[4]
  reduction in the arthritic symptomatology: significant and comparative reduction in the arthritic symptomatology
[5]
  inhibition at 20 mg/kg: > 75%
[6]
  increase of plasma nitrate/nitrite levels: more than 50%
[7]
  efficacy in phenylquinone writhing: fully effective
[2]
  efficacy in rat carrageenan paw edema vs reference drugs: efficacy comparable with the corresponding reference drugs
[8]
  inhibition of gastric prostaglandin E2 synthesis: more than 90%
[9]
  additional adverse reactions (secondary pharmacological evaluation): No relevant additional adverse reactions were observed
[10]
  tolerability in non rodents: very well tolerated
[11]; oral, non rodents, increasing doses up to 30 mg/kg, preliminary
  MTD: ≥ 30 mg/kg
[12]; in vivo
  NOAEL: ≥ 30 mg/kg
[13]
  blood pressure: No changes in blood pressure were observed
[13]; [19]
  diameter of vessels: increasing the diameter of vessels significantly
  leukocyte adherence to post-capillary venules: did not induce significant leukocyte adherence

## CC(C(=O)O)c1cccc(C(=O)c2ccccc2)c1 (stereo not shown) [Ketoprofen, 2-(3-benzoylphenyl)propionic acid, reference compound]
[6]
  effect on plasma nitrate/nitrite levels: did not affect plasma nitrate/nitrite levels significantly
[10]
  mortality in non rodents: caused the death of the animals
[14]; 3 to 30 mg/kg p.o.
  severity of gastric damages: dose-dependent
[14]; p.o.
  dose causing the onset of gastric damages: ≤ 3 mg/kg
[13]; [19]
  leukocyte adherence to post-capillary venules: Unlike Ketoprofen or Flurbiprofen, (XVIII) or (XII) did not induce significant leukocyte adherence

## CCc1cccc2c3c([nH]c12)C(CC)(CC(=O)OCCCCO[N+](=O)[O-])OCC3 (stereo not shown) [(XXVI)]
[1]
  ANTI-AGGREG. ACTIVITY (power ratio relative to the corresponding acid): 1,10
[2]
  ANTI-INFLAM. ACTIVITY (power ratio relative to the corresponding acid): 1,40
[3]; [18]
  GASTRO-INTESTINAL ULCERABILITY (power ratio relative to the corresponding acid): 0,33

## CC(C(=O)OCCCCO[N+](=O)[O-])c1cccc(C(=O)c2ccccc2)c1 (stereo not shown) [(XVIII), nitric ester of 2-(3-benzoilphenyl)propionate of 4-hydroxybutyl]
[4]
  reduction in the arthritic symptomatology: significant and comparative reduction in the arthritic symptomatology
[5]; 20 mg/kg p.o., vs Ketoprofen and Flurbiprofen
  efficacy on exudate prostaglandin E2 relative to reference compounds: comparative efficacy to the corresponding reference compounds
[5]; 20 mg/kg p.o., compared with controls
  inhibition at 20 mg/kg: > 75%
[15]
  inhibition of platelet aggregation, comparison with Flurbiprofen: significantly more effective than the latter
  inhibition at 20 mg/kg: 66%
[6]
  increase of plasma nitrate/nitrite levels: more than 50%
[7]
  efficaciousness in phenylquinone writhing relative to reference compounds: almost comparable with that of the corresponding reference compounds
  efficacy in phenylquinone writhing: fully effective
[1]
  ANTI-AGGREG. ACTIVITY (power ratio relative to the corresponding acid): 1,35
[16]
  acute toxicity: No evident toxicity was observed
[2]
  ANTI-INFLAM. ACTIVITY (power ratio relative to the corresponding acid): 1,25
  efficacy in rat carrageenan paw edema vs reference drugs: efficacy comparable with the corresponding reference drugs
[8]; 5-20 mg/kg p.o., vs Ketoprofen and Flurbiprofen
  inhibition of gastric prostaglandin E2 synthesis relative to reference compounds: inhibited significantly and comparatively to the corresponding reference compounds
[8]
  inhibition of gastric prostaglandin E2 synthesis: more than 90%
[9]
  additional adverse reactions (secondary pharmacological evaluation): No relevant additional adverse reactions were observed
[10]
  tolerability in non rodents: very well tolerated
[11]; po
  MTD: ≥ 30 mg/kg
[14]; 3 to 30 mg/kg p.o.
  gastric tolerability relative to reference compounds: significantly better tolerated than reference compounds
[12]; gastric mucosa
  NOAEL: ≥ 30 mg/kg
[3]; [18]
  GASTRO-INTESTINAL ULCERABILITY (power ratio relative to the corresponding acid): 0,20
[13]
  blood pressure: No changes in blood pressure were observed
[13]; [19]
  diameter of vessels: increasing the diameter of vessels significantly
  leukocyte adherence to post-capillary venules: did not induce significant leukocyte adherence

## CC(C(=O)O)c1ccc(C(=O)c2cccs2)cc1 (stereo not shown) [Suprofen, reference compound]
[1]
  ANTI-AGGREG. ACTIVITY (power ratio relative to the corresponding acid): 1
[2]
  ANTI-INFLAM. ACTIVITY (power ratio relative to the corresponding acid): 1
[3]; rat, in vivo, po
  GASTRO-INTESTINAL ULCERABILITY (power ratio relative to the corresponding acid): 1

## CC(C(=O)O)c1ccc(-c2ccccc2)c(F)c1 (stereo not shown) [Flurbiprofen, reference compound]
[15]
  inhibition at 20 mg/kg: 40%
[6]
  effect on plasma nitrate/nitrite levels: did not affect plasma nitrate/nitrite levels significantly
[17]
  dose causing the onset of gastric damages: ≤ 3 mg/kg
[10]
  mortality in non rodents: caused the death of the animals
[13]; in vivo
  leukocyte adherence to post-capillary venules: Unlike Ketoprofen or Flurbiprofen, (XVIII) or (XII) did not induce significant leukocyte adherence

## CCC(C(=O)O)c1ccc(N2Cc3ccccc3C2=O)cc1 (stereo not shown) [Indobufen, reference compound]
[1]
  ANTI-AGGREG. ACTIVITY (power ratio relative to the corresponding acid): 1
[2]
  ANTI-INFLAM. ACTIVITY (power ratio relative to the corresponding acid): 1
[3]; [18]
  GASTRO-INTESTINAL ULCERABILITY (power ratio relative to the corresponding acid): 1

## CC(C(=O)OCCCCO[N+](=O)[O-])c1ccc(C(=O)c2cccs2)cc1 (stereo not shown) [(XXIV)]
[1]
  ANTI-AGGREG. ACTIVITY (power ratio relative to the corresponding acid): 1,30
[2]
  ANTI-INFLAM. ACTIVITY (power ratio relative to the corresponding acid): 1,20
[3]; [18]
  GASTRO-INTESTINAL ULCERABILITY (power ratio relative to the corresponding acid): 0,35
